In PubChem BioAssay (NCI) one finds TGI and GI50 data, which are given here for 9 compounds.

The structures appear in SMILES notation.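 Following 48 hours of exposure in 96-well plates, responses at five concentrations were used to interpolate endpoints linearly. At the GI50, growth is halved. The concentration for full growth arrest is given as TGI.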

What all share (experiment): DTP human tumour cell line panel, 48 h
Experiment [1] relates to SN12C renal.
Experiment [2] has as its system MALME-3M melanoma.
The subject of experiment [3] is MDA-MB-435.
The test system of experiment [4] is HCT-15 colon.
For experiment [5], the system named is BT-549 breast.
For experiment [6], the system named is UACC-257 melanoma.
Experiment [7] concerns SF-295 CNS.
Experiment [8] has as its system A498 renal.
For experiment [9], the system named is SW-620 colon.
The subject of experiment [10] is SR leukemia.

As to `COc1ccc(NC2=CC(=O)C(=O)c3ccccc32)nn1`, the TGI (commonly the concentration at which net growth stops) is 3.52 µM in [1]; 1.96 µM in [2]; 1.32 µM in experiment [3]; 2.51 µM in [4]; 2.05 µM in [5]; 3.24 µM in experiment [6]. Moreover, the TGI is 2.15 µM in experiment [7], 3.29 µM in experiment [8] and 3.4 µM in experiment [9].
For the compound `Nc1nc(Cl)c2ncn(Cc3ccc(C45CC6CC(CC(C6)C4)C5)c(O)c3)c2n1`, the GI50 (as a rule, the concentration at which growth is held to half of that of the control) in [1] is 2.95 µM; in experiment [2], 2220 nM; in experiment [3], 5.14 µM; in experiment [4], 8.78 µM; in experiment [5], 6.82 µM; in experiment [6], 578 nM. Moreover, the results for the GI50 in experiment [7], in [8] and in [9] were 3290 nM, 8.15 µM and 2.95 µM, respectively. Also, the TGI is 13.4 µM in [1]; 16.3 µM in experiment [2]; 23.2 µM in experiment [3]; 25.5 µM in experiment [4]; 25.2 µM in [5]; 4.86 µM in experiment [6]. The TGI in [7] is 17.4 µM; in experiment [8], 24.4 µM; in experiment [9], 13.3 µM.
Regarding `COc1cc(C2NC(=O)c3ccccc3N2)ccc1OCCCCCOc1c(OC)cc(C2=NOC(c3cc(OC)c(OC)c(OC)c3)C2)cc1OC` (stereo not given), the GI50 in experiment [1] was 31.3 µM; in experiment [3], 0.499 µM; in experiment [4], 3.34 µM; in [5] it was 0.507 µM; in experiment [10] it was 947 nM; in [6], 296 nM. For the same compound, the GI50 was 2540 nM in experiment [7], 19.5 µM in experiment [8] and 14.7 µM in [9]. Besides, the total growth inhibition concentration (TGI) in experiment [1] is more than 100 µM; in [3], more than 100 µM; in experiment [4] it was more than 100 µM; in [5] it was more than 100 µM; in experiment [10] it was more than 100 µM; in [6], 69.9 µM. For the same compound, the concentration for total growth inhibition (TGI) in [7] was more than 100 µM; in [8], more than 76.8 µM; in [9], more than 100 µM.
Regarding `C[C@]12CC[C@H]3[C@@H](CC=C4C[C@@H](O)CC[C@@]43C)[C@@H]1CC[C@@H]2N(CCO)CCO`, the concentration for total growth inhibition (TGI) in [1], in experiment [2], in experiment [3], in experiment [4], in experiment [5] and in experiment [6] was more than 100 µM in each case. The concentration for total growth inhibition (TGI) is more than 100 µM in experiment [7], 73 µM in experiment [8] and more than 100 µM in [9].
With `OCc1c[nH]c2ccccc12`, the GI50 in [1] is 18.9 µM; in experiment [3] it was 19.8 µM; in experiment [4], 20.3 µM; in experiment [5] it was 28.9 µM; in [10] it was 30200 nM; in experiment [6] it was 22900 nM. Moreover, the values for the GI50 in [7], in [8] and in experiment [9] were 19400 nM, 31.3 µM and 17.9 µM, respectively. The total growth inhibition concentration (TGI) in experiment [1] stood at 39.7 µM; in experiment [3], 48.2 µM; in experiment [4] it was 55.3 µM; in experiment [5], 73.3 µM; in experiment [10], 77.4 µM; in experiment [6], 74 µM. Further, the values for the TGI in [7], in [8] and in experiment [9] were 40.9 µM, more than 100 µM and 36.8 µM, respectively.
In the case of `N#Cc1ccc(NC(=O)Nc2ccc(Oc3ccc(NC(=O)Nc4ccc(C#N)cc4)cc3)cc2)cc1`, the GI50 is 25.3 µM in experiment [1]; 3280 nM in experiment [2]; 17.1 µM in [3]; 18 µM in experiment [4]; 3.48 µM in experiment [5]; 29100 nM in [6]. Moreover, the results for the GI50 in experiment [7], in experiment [8] and in [9] were 379 nM, 15.9 µM and 26 µM, respectively. In addition, the TGI in [1] is more than 100 µM; in experiment [2], 77.8 µM; in [3] it was more than 100 µM; in experiment [4], more than 100 µM; in [5], 24.2 µM; in experiment [6], more than 100 µM. Also, the total growth inhibition concentration (TGI) in [7] is 13.6 µM; in [8] it was 61.2 µM; in [9] it was more than 100 µM.
With `C=CCCCCCCCCC(=O)[O][Sn]([CH2]CCC)([CH2]CCC)[CH2]CCC`, the GI50 in [1] was 0.153 µM; in experiment [2], 135 nM; in [3], 0.153 µM; in [4] it was 0.158 µM; in experiment [5], 0.14 µM; in experiment [6] it was 144 nM. Besides, the GI50 is 159 nM in experiment [7], 0.14 µM in experiment [8] and 0.162 µM in experiment [9]. The TGI in experiment [1] was determined as 0.331 µM; in [2], 0.287 µM; in experiment [3], 0.319 µM; in [4], 0.348 µM; in experiment [5], 0.277 µM; in experiment [6], 0.291 µM. For the same compound, the TGI in experiment [7] is 0.337 µM; in [8], 0.276 µM; in experiment [9], 0.332 µM.
`COc1ccc(/C=C/c2nccc3ccccc23)cc1OC`: the concentration for total growth inhibition (TGI) in experiment [1], in experiment [2], in [3], in experiment [4], in experiment [5] and in [6] was more than 10 µM in each case. The total growth inhibition concentration (TGI) in experiment [7], in experiment [8] and in experiment [9] was more than 10 µM each time.
With `O=C1CCCCN1CCCCC#Cc1ccccc1C#Cc1ccc([N+](=O)[O-])cc1`, the GI50 in experiment [1] is 17.1 µM; in experiment [2], 37200 nM; in experiment [3] it was 1.68 µM; in experiment [4], 1.5 µM; in experiment [5] it was 16.6 µM; in experiment [10], 25.5 nM. The results for the GI50 in [6], in experiment [8] and in [9] were 2890 nM, 4.01 µM and 5.18 µM, respectively. Moreover, the TGI in experiment [1] was 37.3 µM; in [2] it was more than 100 µM; in experiment [3], 4.83 µM; in experiment [4], 9.89 µM; in experiment [5] it was 44.6 µM; in experiment [10], 2.14 µM. For the same compound, the figures for the TGI in [6], in [8] and in experiment [9] were 8.24 µM, 25 µM and 18.3 µM, respectively.
